According to PubChem BioAssay AID2060347 (Molecular Pharmacology Branch, DTP, NCI, 2025):

Tested on: 817829-284-R-J1-PDC spheroids with HUVEC/MSC, viability
Test: Anticancer human tumor 817829-284-R-J1-PDC patient-derived colon adenocarcinoma cell line growth inhibition [TAK]
Conditions: for IC50: curve of first compound; for viability, T/C: stronger effect = lower value
From the text: Combinatorial screen of targeted agents with TAK-243 and ipatasertib in multi-cell type tumor spheroids
A high-throughput screen of multi-cell type tumor spheroids was designed to identify active combinations of targeted small molecules and TAK-243 or ipatasertib. Complex spheroids include a stromal component modeled by human endothelial cells (HUVEC) and fibroblasts modeled by human mesenchymal stem cells (MSCs). The concentration ranges selected for each drug and investigational agent were based upon clinically achievable concentrations if the clinical Cmax of the agent was known.
Compounds. The drugs and investigational agents: TAK-243 (785004), ipatasertib (767898), everolimus (733504), selumetinib (741078), bortezomib (756655), trametinib (758246), ixazomib (758254), vemurafenib (761431), dabrafenib (764134), sapanisertib (764658), alpelisib (765974), and copanlisib (816437), were obtained from the National Cancer Institute (NCI) Developmental Therapeutics Program Chemical Repository. The FDA-approved anticancer drug set is available from the NCI Developmental Therapeutics Program. […] The stock solutions were prepared in dimethyl sulfoxide (DMSO, Sigma-Aldrich, St. Louis, MO, cat. D2650) at 800-fold the tested concentration and stored at -70 degrees C prior to their use. All drugs and investigational agents were tested over a range starting from a high concentration at or near the clinical Cmax and decreasing in half-log increments. If the clinical Cmax for an agent had not been determined, the highest concentration tested was 10 microM.
NCI60 Cell Culture. NCI60 cell lines were obtained from the NCI Developmental Therapeutics Program Tumor Repository. For each lot of cells, the Repository performed Applied Biosystems AmpFLSTR Identifiler testing with PCR amplification to confirm consistency with the published Identifier STR profile for each cell line. Cells were kept in continuous culture for no more than 20 passages. The optimal seeding densities for each of the cell lines at each time point assessed were determined prior to performing the concentration response studies. Briefly, the NCI60 human tumor lines were grown as monolayers in RPMI 1640 medium supplemented with 10% FBS and 2 mmol/L L-glutamine.
An additional 2 lines were from the NCI60 cell line panel including melanomas, MALME-3M and SK-MEL-2. Pooled donor human umbilical vein endothelial cells (HUVEC, Lonza, cat. CC-2519) and human mesenchymal stem cells (hMSC, Lonza, cat. PT-2501) were purchased from Lonza (Walkersville, MD).
PDMR cell lines were grown in complete medium (DC medium): Dulbecco's modified Eagle's medium (DMEM)/F12 supplemented with 5% fetal bovine serum (FBS), 2 mM L-glutamine, 100 U/mL penicillin and 100 µg/ml streptomycin, 0.4 µg/ml hydrocortisone, 10 ng/ml epidermal growth factor (EGF) recombinant human protein, 24 µg/mL adenine, and 0.1 mg/mL primocin. During culture from frozen stock vials, PDMR cells were cultured in the same medium containing 10 µM Y-27632 (see Table 3). The PDCs were cultured in complete DMEM/F12 media without 10 microM Y-27632 dihydrochloride for at least two passages prior to the screen. The pooled donor HUVEC and hMSC were cultured in endothelial cell growth medium 2 (PromoCell, Heidelberg, Germany, cat. C-22011) and mesenchymal stem cell growth medium 2 (PromoCell, cat. C-28009), respectively. For all experiments, HUVEC and hMSC were used at passages </=5.
For the pre-screen, cell seeding densities were determined from a titration spanning the range from 5,000 to 313 cells per well. The mct-spheroids including 60% malignant cells, 25% HUVEC and 15% MSC dispensed as a mixture into U-bottom Ultra-Low Attachment 384-well plates (Corning, NY)
High-throughput Drug Combination Screening.
Prior to their inoculation into 384-well plates, malignant cells, HUVEC, and hMSC were removed from T flasks using TrypLE express (Thermo Fisher Scientific, cat. 12605036) and harvested by centrifugation for 5 min at 233 x g. […]

## COC1CC2CCC(C)C(O)(O2)C(=O)C(=O)N2CCCCC2C(=O)OC(C(C)CC2CCC(OCCO)C(OC)C2)CC(=O)C(C)C=C(C)C(O)C(OC)C(=O)C(C)CC(C)C=CC=CC=C1C (stereo not given) + CC(C)NCC(C(=O)N1CCN(c2ncnc3c2C(C)CC3O)CC1)c1ccc(Cl)cc1
Second compound 0.3 µM
  IC50: 14.5 nM
Second compound 0.949 µM
  IC50: 0.479 nM
Second compound 3 µM
  IC50: < 0.316 nM
Second compound 9.49 µM
  IC50: < 0.316 nM
Second compound 30 µM
  IC50: < 0.316 nM
Second compound 0.3 µM, first compound 0.000316 µM
  viability, T/C: 90.9%
Second compound 0.3 µM, first compound 0.001 µM
  viability, T/C: 76.7%
Second compound 0.3 µM, first compound 0.00316 µM
  viability, T/C: 61.8%
Second compound 0.3 µM, first compound 0.01 µM
  viability, T/C: 49.9%
Second compound 0.3 µM, first compound 0.0316 µM
  viability, T/C: 49.7%
Second compound 0.3 µM, first compound 0.1 µM
  viability, T/C: 40.8%
Second compound 0.949 µM, first compound 0.000316 µM
  viability, T/C: 59%
Second compound 0.949 µM, first compound 0.001 µM
  viability, T/C: 33.4%
Second compound 0.949 µM, first compound 0.00316 µM
  viability, T/C: 33.7%
Second compound 0.949 µM, first compound 0.01 µM
  viability, T/C: 31.7%
Second compound 0.949 µM, first compound 0.0316 µM
  viability, T/C: 28.6%
Second compound 0.949 µM, first compound 0.1 µM
  viability, T/C: 28.9%
Second compound 3 µM, first compound 0.000316 µM
  viability, T/C: 23.3%
Second compound 3 µM, first compound 0.001 µM
  viability, T/C: 19.9%
Second compound 3 µM, first compound 0.00316 µM
  viability, T/C: 16.4%
Second compound 3 µM, first compound 0.01 µM
  viability, T/C: 16%
Second compound 3 µM, first compound 0.0316 µM
  viability, T/C: 18.3%
Second compound 3 µM, first compound 0.1 µM
  viability, T/C: 13.7%
Second compound 9.49 µM, first compound 0.000316 µM
  viability, T/C: 12.9%
Second compound 9.49 µM, first compound 0.001 µM
  viability, T/C: 12.5%
Second compound 9.49 µM, first compound 0.00316 µM
  viability, T/C: 12.6%
Second compound 9.49 µM, first compound 0.01 µM
  viability, T/C: 12.7%
Second compound 9.49 µM, first compound 0.0316 µM
  viability, T/C: 9.91%
Second compound 9.49 µM, first compound 0.1 µM
  viability, T/C: 12.8%
Second compound 30 µM, first compound 0.000316 µM
  viability, T/C: 7.9%
Second compound 30 µM, first compound 0.001 µM
  viability, T/C: 7.4%
Second compound 30 µM, first compound 0.00316 µM
  viability, T/C: 6.49%
Second compound 30 µM, first compound 0.01 µM
  viability, T/C: 6.32%
Second compound 30 µM, first compound 0.0316 µM
  viability, T/C: 6.79%
Second compound 30 µM, first compound 0.1 µM
  viability, T/C: 6.34%

## Cn1cnc2c(F)c(Nc3ccc(Br)cc3Cl)c(C(=O)NOCCO)cc21 + CC(C)NCC(C(=O)N1CCN(c2ncnc3c2C(C)CC3O)CC1)c1ccc(Cl)cc1
Second compound 0.3 µM
  IC50: 11.5 nM
Second compound 0.949 µM
  IC50: < 9.49 nM
Second compound 3 µM
  IC50: < 9.49 nM
Second compound 9.49 µM
  IC50: < 9.49 nM
Second compound 30 µM
  IC50: < 9.49 nM
Second compound 0.3 µM, first compound 0.00949 µM
  viability, T/C: 53.8%
Second compound 0.3 µM, first compound 0.03 µM
  viability, T/C: 36.5%
Second compound 0.3 µM, first compound 0.0949 µM
  viability, T/C: 40.4%
Second compound 0.3 µM, first compound 0.3 µM
  viability, T/C: 23.4%
Second compound 0.3 µM, first compound 0.949 µM
  viability, T/C: 17.4%
Second compound 0.3 µM, first compound 3 µM
  viability, T/C: 9.69%
Second compound 0.949 µM, first compound 0.00949 µM
  viability, T/C: 17.6%
Second compound 0.949 µM, first compound 0.03 µM
  viability, T/C: 15.9%
Second compound 0.949 µM, first compound 0.0949 µM
  viability, T/C: 13.8%
Second compound 0.949 µM, first compound 0.3 µM
  viability, T/C: 12.9%
Second compound 0.949 µM, first compound 0.949 µM
  viability, T/C: 12.6%
Second compound 0.949 µM, first compound 3 µM
  viability, T/C: 10.6%
Second compound 3 µM, first compound 0.00949 µM
  viability, T/C: 9.45%
Second compound 3 µM, first compound 0.03 µM
  viability, T/C: 10.2%
Second compound 3 µM, first compound 0.0949 µM
  viability, T/C: 8.2%
Second compound 3 µM, first compound 0.3 µM
  viability, T/C: 9.01%
Second compound 3 µM, first compound 0.949 µM
  viability, T/C: 8.23%
Second compound 3 µM, first compound 3 µM
  viability, T/C: 6.8%
Second compound 9.49 µM, first compound 0.00949 µM
  viability, T/C: 6.1%
Second compound 9.49 µM, first compound 0.03 µM
  viability, T/C: 6.4%
Second compound 9.49 µM, first compound 0.0949 µM
  viability, T/C: 5.55%
Second compound 9.49 µM, first compound 0.3 µM
  viability, T/C: 5.64%
Second compound 9.49 µM, first compound 0.949 µM
  viability, T/C: 4.81%
Second compound 9.49 µM, first compound 3 µM
  viability, T/C: 4.12%
Second compound 30 µM, first compound 0.00949 µM
  viability, T/C: 4.35%
Second compound 30 µM, first compound 0.03 µM
  viability, T/C: 3.94%
Second compound 30 µM, first compound 0.0949 µM
  viability, T/C: 3.58%
Second compound 30 µM, first compound 0.3 µM
  viability, T/C: 3.91%
Second compound 30 µM, first compound 0.949 µM
  viability, T/C: 2.71%
Second compound 30 µM, first compound 3 µM
  viability, T/C: 2.38%
